# Molecular target: T1, Steroid hormone receptor ERR1 (Homo sapiens, UniProt P11474)
# T1 sequence (P11474 whole entry): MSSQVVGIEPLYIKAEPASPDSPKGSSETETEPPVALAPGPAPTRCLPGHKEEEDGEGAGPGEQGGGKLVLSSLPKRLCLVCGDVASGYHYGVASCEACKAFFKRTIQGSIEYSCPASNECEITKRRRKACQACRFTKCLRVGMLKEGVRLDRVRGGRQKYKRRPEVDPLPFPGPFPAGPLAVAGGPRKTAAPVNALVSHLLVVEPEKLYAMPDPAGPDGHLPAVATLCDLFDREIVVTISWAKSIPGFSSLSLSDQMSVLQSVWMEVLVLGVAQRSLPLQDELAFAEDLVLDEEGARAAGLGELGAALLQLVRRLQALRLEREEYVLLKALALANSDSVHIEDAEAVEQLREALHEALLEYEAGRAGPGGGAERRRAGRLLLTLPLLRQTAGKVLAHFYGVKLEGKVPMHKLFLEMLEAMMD
# Assay: Inhibition of fluorescien-conjugated coactivator PGC1a binding to ERRalpha (unknown origin) after 1 hr by TR-FRET assay
# Conditions: not given
row,SMILES,IC50 [nM]
1,CNCCOc1ccc(/C(=C(/CCCO)c2ccccc2)c2ccc(O)cc2)cc1.Cl,> 10000
2,Cc1ccc(/C(=C(\CCCO)c2ccccc2)c2ccc(OCCN(C)C)cc2)cc1.Cl,> 10000
3,CN(C)CCOc1ccc(/C(=C(/CCCO)c2ccccc2)c2ccc(Br)cc2)cc1.Cl,> 10000

# Molecular target: T2, CYP1A2 (Homo sapiens, UniProt P05177)
# T2 sequence (P05177 whole entry): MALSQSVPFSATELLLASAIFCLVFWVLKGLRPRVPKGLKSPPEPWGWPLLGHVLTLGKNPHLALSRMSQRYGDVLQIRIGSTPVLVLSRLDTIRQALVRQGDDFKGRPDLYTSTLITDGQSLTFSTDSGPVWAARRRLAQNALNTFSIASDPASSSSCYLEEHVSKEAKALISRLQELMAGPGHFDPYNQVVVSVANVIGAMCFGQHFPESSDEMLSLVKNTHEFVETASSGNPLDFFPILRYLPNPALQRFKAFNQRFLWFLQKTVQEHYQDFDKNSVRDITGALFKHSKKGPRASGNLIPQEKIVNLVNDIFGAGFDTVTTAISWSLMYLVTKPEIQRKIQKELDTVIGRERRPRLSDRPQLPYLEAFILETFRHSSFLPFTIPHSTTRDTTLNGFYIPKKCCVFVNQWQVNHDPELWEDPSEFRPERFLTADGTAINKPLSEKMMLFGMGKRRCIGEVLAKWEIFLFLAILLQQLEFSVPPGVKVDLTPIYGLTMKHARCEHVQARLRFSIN
# Assay: Inhibition of CYP1A2 in human liver microsomes assessed as remaining activity by measuring phenacetin O-deethylase activity at 10 uM pre-incubated for 5 mins followed by NADPH regenerating system addition by LC-MS/MS analysis relative to control
# Assay type: ADME
# Conditions: probe phenacetin (O-deethylation), read-out: Activity
row,SMILES,activity at 10 µM [%]
1,CN(C)CCOc1ccc(/C(=C(/CCCO)c2ccccc2)c2ccc(O)cc2)cc1.Cl,84
2,CNCCOc1ccc(/C(=C(/CCCO)c2ccccc2)c2ccc(O)cc2)cc1.Cl,91
3,Cc1ccc(/C(=C(\CCCO)c2ccccc2)c2ccc(OCCN(C)C)cc2)cc1.Cl,> 100
4,CN(C)CCOc1ccc(/C(=C(/CCCO)c2ccccc2)c2ccc(Br)cc2)cc1.Cl,> 100

# Molecular target: T3, Steroid hormone receptor ERR2 (Homo sapiens, UniProt O95718)
# T3 sequence (O95718 whole entry): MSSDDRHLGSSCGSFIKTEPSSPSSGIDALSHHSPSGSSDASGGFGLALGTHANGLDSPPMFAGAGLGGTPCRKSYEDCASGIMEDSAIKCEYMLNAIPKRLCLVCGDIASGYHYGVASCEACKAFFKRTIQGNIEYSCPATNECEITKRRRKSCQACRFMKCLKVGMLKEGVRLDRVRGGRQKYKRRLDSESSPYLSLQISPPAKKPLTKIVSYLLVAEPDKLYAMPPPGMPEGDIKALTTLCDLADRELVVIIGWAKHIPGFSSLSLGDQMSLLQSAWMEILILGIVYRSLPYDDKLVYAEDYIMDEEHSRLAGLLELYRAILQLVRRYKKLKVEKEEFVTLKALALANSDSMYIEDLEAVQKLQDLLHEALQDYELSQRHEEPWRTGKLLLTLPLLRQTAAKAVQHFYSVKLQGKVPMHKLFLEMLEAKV
# Assay: Inhibition of fluorescien-conjugated coactivator PGC1a binding to ERRbeta (unknown origin) after 1 hr by TR-FRET assay
# Conditions: not given
row,SMILES,IC50 [nM]
1,CNCCOc1ccc(/C(=C(/CCCO)c2ccccc2)c2ccc(O)cc2)cc1.Cl,> 10000
2,Cc1ccc(/C(=C(\CCCO)c2ccccc2)c2ccc(OCCN(C)C)cc2)cc1.Cl,> 10000
3,CN(C)CCOc1ccc(/C(=C(/CCCO)c2ccccc2)c2ccc(Br)cc2)cc1.Cl,6950

# Molecular target: T4, Estrogen receptor (Homo sapiens, UniProt P03372)
# T4 sequence (P03372 whole entry): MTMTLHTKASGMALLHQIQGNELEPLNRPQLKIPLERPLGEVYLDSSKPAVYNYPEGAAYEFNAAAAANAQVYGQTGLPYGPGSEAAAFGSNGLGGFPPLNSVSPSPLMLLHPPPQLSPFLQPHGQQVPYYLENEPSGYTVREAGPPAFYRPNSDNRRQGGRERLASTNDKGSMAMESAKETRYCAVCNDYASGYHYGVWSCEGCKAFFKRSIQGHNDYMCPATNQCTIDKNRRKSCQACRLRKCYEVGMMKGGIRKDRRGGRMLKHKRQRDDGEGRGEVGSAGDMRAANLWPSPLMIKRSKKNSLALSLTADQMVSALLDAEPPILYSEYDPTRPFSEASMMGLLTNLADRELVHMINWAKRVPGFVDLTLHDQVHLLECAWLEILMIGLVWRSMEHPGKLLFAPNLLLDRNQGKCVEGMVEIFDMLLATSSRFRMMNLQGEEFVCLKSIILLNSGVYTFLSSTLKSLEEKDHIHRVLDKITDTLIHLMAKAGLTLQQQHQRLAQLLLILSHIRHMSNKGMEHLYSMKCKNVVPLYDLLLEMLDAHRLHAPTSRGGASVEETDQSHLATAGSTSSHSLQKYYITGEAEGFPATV
# Assay: not given
# Conditions: not given
row,SMILES,IC50 [nM]
1,CNCCOc1ccc(/C(=C(/CCCO)c2ccccc2)c2ccc(O)cc2)cc1.Cl,3340
2,Cc1ccc(/C(=C(\CCCO)c2ccccc2)c2ccc(OCCN(C)C)cc2)cc1.Cl,> 10000
3,CN(C)CCOc1ccc(/C(=C(/CCCO)c2ccccc2)c2ccc(Br)cc2)cc1.Cl,> 10000

# Molecular target: CYP2C9 (Homo sapiens, UniProt P11712)
# Sequence (P11712 whole entry): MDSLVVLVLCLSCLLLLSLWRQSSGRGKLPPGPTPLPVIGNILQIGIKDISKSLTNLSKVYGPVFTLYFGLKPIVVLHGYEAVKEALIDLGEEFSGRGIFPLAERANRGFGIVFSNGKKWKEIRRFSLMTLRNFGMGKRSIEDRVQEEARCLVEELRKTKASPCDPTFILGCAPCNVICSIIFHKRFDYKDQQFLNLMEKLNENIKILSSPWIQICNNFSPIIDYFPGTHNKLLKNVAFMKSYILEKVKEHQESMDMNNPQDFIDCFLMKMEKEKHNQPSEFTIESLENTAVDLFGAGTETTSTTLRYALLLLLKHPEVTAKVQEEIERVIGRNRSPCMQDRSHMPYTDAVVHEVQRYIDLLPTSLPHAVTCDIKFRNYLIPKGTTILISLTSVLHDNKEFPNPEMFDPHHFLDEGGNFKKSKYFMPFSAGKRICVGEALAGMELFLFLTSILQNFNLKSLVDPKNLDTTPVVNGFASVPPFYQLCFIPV
# Assay: Inhibition of CYP2C9 in human liver microsomes assessed as remaining activity by measuring tolbutamide 4-hydroxylase activity at 10 uM pre-incubated for 5 mins followed by NADPH regenerating system addition by LC-MS/MS analysis relative to control
# Assay type: ADME
# Conditions: probe tolbutamide (4-hydroxylation), read-out: Activity
row,SMILES,activity at 10 µM [%]
1,CN(C)CCOc1ccc(/C(=C(/CCCO)c2ccccc2)c2ccc(O)cc2)cc1.Cl,73
2,CNCCOc1ccc(/C(=C(/CCCO)c2ccccc2)c2ccc(O)cc2)cc1.Cl,44
3,Cc1ccc(/C(=C(\CCCO)c2ccccc2)c2ccc(OCCN(C)C)cc2)cc1.Cl,60
4,CN(C)CCOc1ccc(/C(=C(/CCCO)c2ccccc2)c2ccc(Br)cc2)cc1.Cl,86

# Molecular target: CYP2C19 (Homo sapiens, UniProt P33261)
# Sequence (P33261 whole entry): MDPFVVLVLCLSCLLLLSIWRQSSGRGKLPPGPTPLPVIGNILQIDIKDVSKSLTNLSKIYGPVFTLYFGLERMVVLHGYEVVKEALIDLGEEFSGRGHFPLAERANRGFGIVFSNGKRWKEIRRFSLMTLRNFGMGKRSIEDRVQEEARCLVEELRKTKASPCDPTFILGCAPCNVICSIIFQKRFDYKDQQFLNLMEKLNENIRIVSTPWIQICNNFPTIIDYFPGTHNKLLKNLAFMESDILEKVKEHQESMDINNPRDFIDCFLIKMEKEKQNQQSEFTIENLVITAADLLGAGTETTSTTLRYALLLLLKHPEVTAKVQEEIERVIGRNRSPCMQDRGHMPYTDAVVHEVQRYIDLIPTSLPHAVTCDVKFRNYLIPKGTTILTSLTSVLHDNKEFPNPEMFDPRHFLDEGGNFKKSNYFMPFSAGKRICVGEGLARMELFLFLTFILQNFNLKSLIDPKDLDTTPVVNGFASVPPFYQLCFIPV
# Assay: Inhibition of CYP2C19 in human liver microsomes assessed as remaining activity by measuring S-mephenytoin 4-hydroxylase activity at 10 uM pre-incubated for 5 mins followed by NADPH regenerating system addition by LC-MS/MS analysis relative to control
# Assay type: ADME
# Conditions: probe S-mephenytoin (4-hydroxylation), read-out: Activity
row,SMILES,activity at 10 µM [%]
1,CN(C)CCOc1ccc(/C(=C(/CCCO)c2ccccc2)c2ccc(O)cc2)cc1.Cl,78
2,CNCCOc1ccc(/C(=C(/CCCO)c2ccccc2)c2ccc(O)cc2)cc1.Cl,76
3,Cc1ccc(/C(=C(\CCCO)c2ccccc2)c2ccc(OCCN(C)C)cc2)cc1.Cl,> 100
4,CN(C)CCOc1ccc(/C(=C(/CCCO)c2ccccc2)c2ccc(Br)cc2)cc1.Cl,61

# Molecular target: CYP2D6 (Homo sapiens, UniProt P10635)
# Sequence (P10635 whole entry): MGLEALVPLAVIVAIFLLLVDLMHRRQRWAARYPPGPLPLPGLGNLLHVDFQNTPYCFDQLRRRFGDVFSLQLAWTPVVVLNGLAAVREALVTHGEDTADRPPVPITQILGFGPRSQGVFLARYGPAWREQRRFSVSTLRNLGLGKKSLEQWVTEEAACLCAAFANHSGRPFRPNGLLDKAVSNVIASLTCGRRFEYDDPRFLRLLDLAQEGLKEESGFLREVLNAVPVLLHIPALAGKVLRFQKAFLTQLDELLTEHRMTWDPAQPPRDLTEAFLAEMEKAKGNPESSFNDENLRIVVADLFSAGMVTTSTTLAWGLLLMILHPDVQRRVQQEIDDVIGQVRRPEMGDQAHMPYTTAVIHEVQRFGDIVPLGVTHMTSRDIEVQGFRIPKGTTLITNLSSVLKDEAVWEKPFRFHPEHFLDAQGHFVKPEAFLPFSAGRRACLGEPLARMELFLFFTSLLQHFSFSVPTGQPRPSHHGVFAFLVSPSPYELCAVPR
# Assay: Inhibition of CYP2D6 in human liver microsomes assessed as remaining activity by measuring dextromethorphan O-demethylase activity at 10 uM pre-incubated for 5 mins followed by NADPH regenerating system addition by LC-MS/MS analysis relative to control
# Assay type: ADME
# Conditions: probe dextromethorphan (O-demethylation), read-out: Activity
row,SMILES,activity at 10 µM [%]
1,CN(C)CCOc1ccc(/C(=C(/CCCO)c2ccccc2)c2ccc(O)cc2)cc1.Cl,82
2,CNCCOc1ccc(/C(=C(/CCCO)c2ccccc2)c2ccc(O)cc2)cc1.Cl,89
3,Cc1ccc(/C(=C(\CCCO)c2ccccc2)c2ccc(OCCN(C)C)cc2)cc1.Cl,> 100
4,CN(C)CCOc1ccc(/C(=C(/CCCO)c2ccccc2)c2ccc(Br)cc2)cc1.Cl,99

# Molecular target: CYP3A4 (Homo sapiens, UniProt P08684)
# Sequence (P08684 whole entry): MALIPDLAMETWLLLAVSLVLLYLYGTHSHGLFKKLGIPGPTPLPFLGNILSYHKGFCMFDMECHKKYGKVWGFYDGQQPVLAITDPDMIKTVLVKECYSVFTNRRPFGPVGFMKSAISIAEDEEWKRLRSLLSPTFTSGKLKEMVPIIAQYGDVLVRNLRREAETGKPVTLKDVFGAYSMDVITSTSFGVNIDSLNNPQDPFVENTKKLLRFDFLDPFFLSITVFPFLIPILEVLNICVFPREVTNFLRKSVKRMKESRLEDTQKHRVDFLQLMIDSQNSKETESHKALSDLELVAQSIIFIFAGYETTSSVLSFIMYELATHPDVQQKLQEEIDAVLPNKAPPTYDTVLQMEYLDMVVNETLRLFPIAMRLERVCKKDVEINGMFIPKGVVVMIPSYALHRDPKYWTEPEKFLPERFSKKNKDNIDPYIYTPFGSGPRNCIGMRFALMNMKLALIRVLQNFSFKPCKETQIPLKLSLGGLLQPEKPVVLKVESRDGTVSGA
# Assay: Inhibition of CYP3A4 in human liver microsomes assessed as remaining activity by measuring midazolam 1'-hydroxylase activity at 10 uM pre-incubated for 5 mins followed by NADPH regenerating system addition by LC-MS/MS analysis relative to control
# Assay type: ADME
# Conditions: probe midazolam (1'-hydroxylation), read-out: Activity
row,SMILES,activity at 10 µM [%]
1,CN(C)CCOc1ccc(/C(=C(/CCCO)c2ccccc2)c2ccc(O)cc2)cc1.Cl,83
2,CNCCOc1ccc(/C(=C(/CCCO)c2ccccc2)c2ccc(O)cc2)cc1.Cl,85
3,Cc1ccc(/C(=C(\CCCO)c2ccccc2)c2ccc(OCCN(C)C)cc2)cc1.Cl,> 100
4,CN(C)CCOc1ccc(/C(=C(/CCCO)c2ccccc2)c2ccc(Br)cc2)cc1.Cl,88

# Tested on: not listed separately
# Assay: Metabolic stability in dog liver microsomes assessed as compound remaining at 1 uM after 30 mins in presence of NADPH by LC-MS/MS analysis
# Assay type: ADME, Canis lupus familiaris
# Conditions: read-out: Stability
row,SMILES,"remaining at 0.5 h, 1 µM [%]"
1,CNCCOc1ccc(/C(=C(/CCCO)c2ccccc2)c2ccc(O)cc2)cc1.Cl,76
2,Cc1ccc(/C(=C(\CCCO)c2ccccc2)c2ccc(OCCN(C)C)cc2)cc1.Cl,13
3,CN(C)CCOc1ccc(/C(=C(/CCCO)c2ccccc2)c2ccc(Br)cc2)cc1.Cl,5.8

# Tested on: not listed separately
# Assay: Permeability of the compound in PBS at pH 7.4 at 10 uM after 5 hrs by LC-MS/MS analysis
# Assay type: ADME
# Conditions: not told, read-out: permeability
row,SMILES,"Papp at 5 h, 10 µM [×10⁻⁶ cm/s]"
1,CN(C)CCOc1ccc(/C(=C(/CCCO)c2ccccc2)c2ccc(O)cc2)cc1.Cl,0.43
2,CNCCOc1ccc(/C(=C(/CCCO)c2ccccc2)c2ccc(O)cc2)cc1.Cl,0.03
3,Cc1ccc(/C(=C(\CCCO)c2ccccc2)c2ccc(OCCN(C)C)cc2)cc1.Cl,9.94
4,CN(C)CCOc1ccc(/C(=C(/CCCO)c2ccccc2)c2ccc(Br)cc2)cc1.Cl,6.52

# Molecular target: T5, Estrogen-related receptor gamma (Homo sapiens, UniProt P62508)
# T5 sequence (P62508 whole entry): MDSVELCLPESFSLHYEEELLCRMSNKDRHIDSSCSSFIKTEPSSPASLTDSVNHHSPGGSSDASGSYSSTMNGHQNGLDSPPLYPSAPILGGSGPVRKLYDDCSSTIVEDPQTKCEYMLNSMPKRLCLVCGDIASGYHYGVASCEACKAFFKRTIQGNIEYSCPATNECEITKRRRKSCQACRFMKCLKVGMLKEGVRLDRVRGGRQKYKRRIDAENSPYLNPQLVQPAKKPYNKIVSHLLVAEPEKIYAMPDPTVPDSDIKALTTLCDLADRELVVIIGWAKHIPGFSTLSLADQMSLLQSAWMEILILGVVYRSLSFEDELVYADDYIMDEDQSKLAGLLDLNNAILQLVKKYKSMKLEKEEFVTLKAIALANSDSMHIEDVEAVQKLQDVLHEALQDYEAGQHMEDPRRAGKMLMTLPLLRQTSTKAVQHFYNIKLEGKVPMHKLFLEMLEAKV
# Assay: not given
# Conditions: not given
row,SMILES,IC50 [nM]
1,CNCCOc1ccc(/C(=C(/CCCO)c2ccccc2)c2ccc(O)cc2)cc1.Cl,190
2,Cc1ccc(/C(=C(\CCCO)c2ccccc2)c2ccc(OCCN(C)C)cc2)cc1.Cl,270
3,CN(C)CCOc1ccc(/C(=C(/CCCO)c2ccccc2)c2ccc(Br)cc2)cc1.Cl,117

# Molecular target: T5, Estrogen-related receptor gamma
# Assay: not given
# Conditions: not given
# Remark: another data set of the same source
row,SMILES,IC50 [nM]
1,CNCCOc1ccc(/C(=C(/CCCO)c2ccccc2)c2ccc(O)cc2)cc1.Cl,187
2,Cc1ccc(/C(=C(\CCCO)c2ccccc2)c2ccc(OCCN(C)C)cc2)cc1.Cl,669
3,CN(C)CCOc1ccc(/C(=C(/CCCO)c2ccccc2)c2ccc(Br)cc2)cc1.Cl,719

# Tested on: not listed separately
# Assay: in vitro
# Conditions: human, liver microsomes
# Description: Metabolic stability in human liver microsomes assessed as compound remaining at 1 uM after 30 mins in presence of NADPH by LC-MS/MS analysis
row,SMILES,"remaining at 0.5 h, 1 µM [%]"
1,CN(C)CCOc1ccc(/C(=C(/CCCO)c2ccccc2)c2ccc(O)cc2)cc1.Cl,43
2,CNCCOc1ccc(/C(=C(/CCCO)c2ccccc2)c2ccc(O)cc2)cc1.Cl,83
3,Cc1ccc(/C(=C(\CCCO)c2ccccc2)c2ccc(OCCN(C)C)cc2)cc1.Cl,59
4,CN(C)CCOc1ccc(/C(=C(/CCCO)c2ccccc2)c2ccc(Br)cc2)cc1.Cl,42

# Tested on: not listed separately
# Assay: in vitro
# Conditions: rat, liver microsomes
# Description: Metabolic stability in rat liver microsomes assessed as compound remaining at 1 uM after 30 mins in presence of NADPH by LC-MS/MS analysis
row,SMILES,"remaining at 0.5 h, 1 µM [%]"
1,CN(C)CCOc1ccc(/C(=C(/CCCO)c2ccccc2)c2ccc(O)cc2)cc1.Cl,26
2,CNCCOc1ccc(/C(=C(/CCCO)c2ccccc2)c2ccc(O)cc2)cc1.Cl,79
3,Cc1ccc(/C(=C(\CCCO)c2ccccc2)c2ccc(OCCN(C)C)cc2)cc1.Cl,25
4,CN(C)CCOc1ccc(/C(=C(/CCCO)c2ccccc2)c2ccc(Br)cc2)cc1.Cl,30

# Tested on: not listed separately
# Assay: in vitro
# Conditions: mouse, liver microsomes
# Description: Metabolic stability in mouse liver microsomes assessed as compound remaining at 1 uM after 30 mins in presence of NADPH by LC-MS/MS analysis
row,SMILES,"remaining at 0.5 h, 1 µM [%]"
1,CNCCOc1ccc(/C(=C(/CCCO)c2ccccc2)c2ccc(O)cc2)cc1.Cl,20
2,Cc1ccc(/C(=C(\CCCO)c2ccccc2)c2ccc(OCCN(C)C)cc2)cc1.Cl,16
3,CN(C)CCOc1ccc(/C(=C(/CCCO)c2ccccc2)c2ccc(Br)cc2)cc1.Cl,35
